The source of these data is ChEMBL document CHEMBL1201862, “PubChem BioAssay data set” (2004).

The source made the active and inactive calls.

Experiment [1] has as its target T1, Voltage-gated N-type calcium channel alpha-1B subunit/Amyloid beta A4 precursor protein-binding family A member 1 (Homo sapiens, UniProt Q00975+Q02410). Format: protein assay.
In experiment [2] the target is T1, Voltage-gated N-type calcium channel alpha-1B subunit/Amyloid beta A4 precursor protein-binding family A member 1. Format: protein assay. This is another data set of the same source.
A further experiment deals with T2, Coagulation factor XII (Homo sapiens, UniProt P00748).
T2 sequence (P00748 whole entry): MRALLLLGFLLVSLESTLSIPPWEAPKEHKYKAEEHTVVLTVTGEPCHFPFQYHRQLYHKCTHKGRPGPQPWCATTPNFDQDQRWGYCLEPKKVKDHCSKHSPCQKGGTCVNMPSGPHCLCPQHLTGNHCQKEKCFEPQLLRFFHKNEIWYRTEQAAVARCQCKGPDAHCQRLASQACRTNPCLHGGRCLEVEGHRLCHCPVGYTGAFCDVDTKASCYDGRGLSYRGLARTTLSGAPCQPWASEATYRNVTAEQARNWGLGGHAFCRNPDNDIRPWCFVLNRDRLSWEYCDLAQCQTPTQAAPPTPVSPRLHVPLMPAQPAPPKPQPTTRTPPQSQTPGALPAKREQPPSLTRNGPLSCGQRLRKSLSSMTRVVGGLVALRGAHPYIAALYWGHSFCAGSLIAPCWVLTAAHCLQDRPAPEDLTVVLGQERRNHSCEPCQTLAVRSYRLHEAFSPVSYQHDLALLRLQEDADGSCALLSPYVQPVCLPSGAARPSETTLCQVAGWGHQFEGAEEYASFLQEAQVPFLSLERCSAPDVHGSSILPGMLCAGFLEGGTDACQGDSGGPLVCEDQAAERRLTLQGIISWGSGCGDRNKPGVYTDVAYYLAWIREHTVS
Format: functional.

For experiment [3], the target named is Polyadenylate-binding protein 1 (Homo sapiens, UniProt P11940). Description: blockers of PABP interaction with poly(A) – biochemical, fluorescence polarization, […] (AID 2014). (Polarisation of emitted light reports the rotation of a fluorescent probe.)
For experiment [4], the target named is Eukaryotic translation initiation factor 4H (Homo sapiens, UniProt Q15056). Description: eIF4H binding inhibition – biochemical, uHTS, fluorescence polarization, translation initiation inhibitor project, primary screen (AID 2012).
Experiment [5] has as its target DNA dC->dU-editing enzyme APOBEC-3A (Homo sapiens, UniProt P31941). Description: Dose Response confirmation of small molecule APOBEC3A DNA Deaminase Inhibitors via a fluorescence-based single-stranded DNA deaminase assay. [Related pubchem assays (depositor defined):AID493011, AID493024]. The format is functional.
For experiment [6], the target named is DNA dC->dU-editing enzyme APOBEC-3G (Homo sapiens, UniProt Q9HC16). Format: functional.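 Note: Dose-response counterscreen measuring inhibition of APOBEC3G DNA deaminase activity, run while confirming APOBEC3A inhibitors.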
For experiment [7], the target named is DNA damage-inducible transcript 3 protein (Mus musculus, UniProt P35639). The format is functional, Cricetulus griseus.
Experiment [8] in a line: alpha-synuclein stem-loop luciferase translation blockers – H4 neuroglioma cells, luminescence, confirmation (AID 1988). The format is functional, cell-based.
Experiment [9] in a line: A549 cell cytotoxicity, dose response, cytotoxicity control, plate reader, cherry-pick, antagonist series (AID 743412). Format: functional, cell-based.
The nature of experiment [10]: blockers of bursicon-stimulated LGR2 cAMP reporter – cell-based, HEK293, CRE-luciferase reporter, cherry pick, set 2, dose response (AID 743343).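 Note: transfected cells were stimulated with diluted bursicon conditioned medium after compound addition.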 The format is functional. Background: A reporter such as luciferase makes a cellular process visible.
Experiment [11] can be described thus: blockade of melanocortin 4 receptor signaling – cell-based, plate reader, cherry pick, counter-screen for LGR2 antagonist project, dose response (AID 743444).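 Note: transfected HEK 293 cells stimulated with alpha-MSH peptide; potency of inhibitors of the alpha-MSH evoked signal.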 Format: functional. (In general: The purpose of a counterscreen is to sort out artefacts and off-target activity.)
Experiment [12] can be described thus: toxicity toward HepG2 liver cells – cell-based, plate reader, cherry-pick, antagonist series, cytotoxicity control, dose response (AID 743416). The format is functional.
A short description of experiment [13]: luciferase reporter signal suppression in cells – H4 neuroglioma cells, luminescence, dose response (AID 1990). The format is functional, cell-based.
A short description of experiment [14]: Luminescence-based counterscreen assay for KLF5 inhibitors: dose response cell-based high throughput screening assay to identify cytotoxic compounds using the IEC-6 intestinal epithelial cell line. [Related pubchem assays: 1700 (Primary screen.), 1834 (Confirmation screen.), 1858 (Summary AID.), 1905 (Counterscreen.)]. The format is functional.
Experiment [15] in a line: Luminescence Cell-Based Dose Response HTS to Identify Inhibitors of 5'UTR Stem-Loop Driven Prion Protein mRNA Translation in H4 Neuroglioblastoma Cells. [Related pubchem assays: 1827 (Project Summary), 1813 (Primary HTS)]. Format: functional.
Experiment [16] deals with FAD-linked sulfhydryl oxidase ALR (Homo sapiens, UniProt P55789). Description: ALR-catalysed DTT oxidation blockers – biochemical, H2O2 detection, luminescence, cherry-pick, dose response (AID 493248).
Experiment [17] is described as follows: Luminescence Cell-Based Dose Response to Identify Activators of 5'UTR Stem-Loop Driven Prion Protein mRNA Translation in H4-C Neuroglioblastoma Cells. [Related pubchem assays: 1829 (Project Summary), 1814 (Primary HTS)]. Format: functional.
Experiment [18] can be described thus: Luminescence Cell-Based Dose Response to Identify Activators of Luciferase Translation or Activity in H4-C Neuroglioblastoma Cells. [Related pubchem assays: 1829 (Project Summary), 1814 (Primary HTS)]. The format is functional.
Another experiment relates to H4. Nature of the experiment: Luminescence Cell-Based Dose Response HTS to Identify Activators of 5'UTR Stem-Loop Driven Prion Protein mRNA Translation in H4 Neuroglioblastoma Cells. [Related pubchem assays: 1829 (Project Summary), 1814 (Primary HTS)]. Format: functional. The note with it: Homo sapiens.
Experiment [19] can be described thus: Luminescence Cell-Based Dose Confirmation to Identify Activators of 5'UTR Stem-Loop Driven Alpha-Synuclein mRNA Translation in H4 Neuroglioblastoma Cells. [Related pubchem assays: 1829 (Project Summary), 1814 (Primary HTS)]. The format is functional.
A short description of experiment [20]: Luminescence Cell-Based Dose Response HTS to Identify Activators of Luciferase Translation or Activity in H4 […] Cells. [Related pubchem assays: 1829 (Project Summary), 1814 (Primary HTS)]. The format is functional.
For the next experiment, the target named is Beta-galactosidase (Escherichia coli, UniProt Q8VNN2). Nature of the experiment: detection-enzyme interference by beta-gal modulators – biochemical, E. coli enzyme, set 3, artefact control for CCR6 antagonist project, dose response (AID 504712). The format is functional.
In another experiment the target is Nonstructural protein 1 (Influenza A virus, UniProt Q194T2). The format is functional, Influenza A virus (A/California/07/2009(H1N1)).
Nonstructural protein 1, sequence (Q194T2 whole entry): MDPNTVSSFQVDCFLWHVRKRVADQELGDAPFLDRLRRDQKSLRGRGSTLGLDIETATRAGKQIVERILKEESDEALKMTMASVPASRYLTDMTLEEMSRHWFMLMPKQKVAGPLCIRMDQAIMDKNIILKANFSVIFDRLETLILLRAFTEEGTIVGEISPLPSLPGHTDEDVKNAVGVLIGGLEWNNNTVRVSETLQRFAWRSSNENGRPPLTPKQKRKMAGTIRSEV

Polyadenylate-binding protein 1, sequence (P11940 whole entry): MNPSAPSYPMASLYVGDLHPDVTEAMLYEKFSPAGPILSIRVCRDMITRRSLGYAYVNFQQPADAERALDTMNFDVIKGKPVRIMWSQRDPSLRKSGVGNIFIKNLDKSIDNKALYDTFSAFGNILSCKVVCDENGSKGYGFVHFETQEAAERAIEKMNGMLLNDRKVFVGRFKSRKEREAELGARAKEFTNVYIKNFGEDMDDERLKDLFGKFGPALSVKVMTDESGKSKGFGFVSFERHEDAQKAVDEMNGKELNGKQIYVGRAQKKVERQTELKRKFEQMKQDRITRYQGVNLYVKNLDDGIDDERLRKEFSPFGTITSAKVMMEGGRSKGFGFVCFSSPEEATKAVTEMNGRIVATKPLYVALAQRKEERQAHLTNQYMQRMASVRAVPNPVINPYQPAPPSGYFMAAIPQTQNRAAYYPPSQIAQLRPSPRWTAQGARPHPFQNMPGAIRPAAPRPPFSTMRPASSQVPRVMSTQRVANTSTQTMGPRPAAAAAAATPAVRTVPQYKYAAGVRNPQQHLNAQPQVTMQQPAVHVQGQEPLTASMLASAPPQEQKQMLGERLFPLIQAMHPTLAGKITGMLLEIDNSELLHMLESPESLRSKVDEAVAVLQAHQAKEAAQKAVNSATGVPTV
T1 sequence (Q00975 whole entry): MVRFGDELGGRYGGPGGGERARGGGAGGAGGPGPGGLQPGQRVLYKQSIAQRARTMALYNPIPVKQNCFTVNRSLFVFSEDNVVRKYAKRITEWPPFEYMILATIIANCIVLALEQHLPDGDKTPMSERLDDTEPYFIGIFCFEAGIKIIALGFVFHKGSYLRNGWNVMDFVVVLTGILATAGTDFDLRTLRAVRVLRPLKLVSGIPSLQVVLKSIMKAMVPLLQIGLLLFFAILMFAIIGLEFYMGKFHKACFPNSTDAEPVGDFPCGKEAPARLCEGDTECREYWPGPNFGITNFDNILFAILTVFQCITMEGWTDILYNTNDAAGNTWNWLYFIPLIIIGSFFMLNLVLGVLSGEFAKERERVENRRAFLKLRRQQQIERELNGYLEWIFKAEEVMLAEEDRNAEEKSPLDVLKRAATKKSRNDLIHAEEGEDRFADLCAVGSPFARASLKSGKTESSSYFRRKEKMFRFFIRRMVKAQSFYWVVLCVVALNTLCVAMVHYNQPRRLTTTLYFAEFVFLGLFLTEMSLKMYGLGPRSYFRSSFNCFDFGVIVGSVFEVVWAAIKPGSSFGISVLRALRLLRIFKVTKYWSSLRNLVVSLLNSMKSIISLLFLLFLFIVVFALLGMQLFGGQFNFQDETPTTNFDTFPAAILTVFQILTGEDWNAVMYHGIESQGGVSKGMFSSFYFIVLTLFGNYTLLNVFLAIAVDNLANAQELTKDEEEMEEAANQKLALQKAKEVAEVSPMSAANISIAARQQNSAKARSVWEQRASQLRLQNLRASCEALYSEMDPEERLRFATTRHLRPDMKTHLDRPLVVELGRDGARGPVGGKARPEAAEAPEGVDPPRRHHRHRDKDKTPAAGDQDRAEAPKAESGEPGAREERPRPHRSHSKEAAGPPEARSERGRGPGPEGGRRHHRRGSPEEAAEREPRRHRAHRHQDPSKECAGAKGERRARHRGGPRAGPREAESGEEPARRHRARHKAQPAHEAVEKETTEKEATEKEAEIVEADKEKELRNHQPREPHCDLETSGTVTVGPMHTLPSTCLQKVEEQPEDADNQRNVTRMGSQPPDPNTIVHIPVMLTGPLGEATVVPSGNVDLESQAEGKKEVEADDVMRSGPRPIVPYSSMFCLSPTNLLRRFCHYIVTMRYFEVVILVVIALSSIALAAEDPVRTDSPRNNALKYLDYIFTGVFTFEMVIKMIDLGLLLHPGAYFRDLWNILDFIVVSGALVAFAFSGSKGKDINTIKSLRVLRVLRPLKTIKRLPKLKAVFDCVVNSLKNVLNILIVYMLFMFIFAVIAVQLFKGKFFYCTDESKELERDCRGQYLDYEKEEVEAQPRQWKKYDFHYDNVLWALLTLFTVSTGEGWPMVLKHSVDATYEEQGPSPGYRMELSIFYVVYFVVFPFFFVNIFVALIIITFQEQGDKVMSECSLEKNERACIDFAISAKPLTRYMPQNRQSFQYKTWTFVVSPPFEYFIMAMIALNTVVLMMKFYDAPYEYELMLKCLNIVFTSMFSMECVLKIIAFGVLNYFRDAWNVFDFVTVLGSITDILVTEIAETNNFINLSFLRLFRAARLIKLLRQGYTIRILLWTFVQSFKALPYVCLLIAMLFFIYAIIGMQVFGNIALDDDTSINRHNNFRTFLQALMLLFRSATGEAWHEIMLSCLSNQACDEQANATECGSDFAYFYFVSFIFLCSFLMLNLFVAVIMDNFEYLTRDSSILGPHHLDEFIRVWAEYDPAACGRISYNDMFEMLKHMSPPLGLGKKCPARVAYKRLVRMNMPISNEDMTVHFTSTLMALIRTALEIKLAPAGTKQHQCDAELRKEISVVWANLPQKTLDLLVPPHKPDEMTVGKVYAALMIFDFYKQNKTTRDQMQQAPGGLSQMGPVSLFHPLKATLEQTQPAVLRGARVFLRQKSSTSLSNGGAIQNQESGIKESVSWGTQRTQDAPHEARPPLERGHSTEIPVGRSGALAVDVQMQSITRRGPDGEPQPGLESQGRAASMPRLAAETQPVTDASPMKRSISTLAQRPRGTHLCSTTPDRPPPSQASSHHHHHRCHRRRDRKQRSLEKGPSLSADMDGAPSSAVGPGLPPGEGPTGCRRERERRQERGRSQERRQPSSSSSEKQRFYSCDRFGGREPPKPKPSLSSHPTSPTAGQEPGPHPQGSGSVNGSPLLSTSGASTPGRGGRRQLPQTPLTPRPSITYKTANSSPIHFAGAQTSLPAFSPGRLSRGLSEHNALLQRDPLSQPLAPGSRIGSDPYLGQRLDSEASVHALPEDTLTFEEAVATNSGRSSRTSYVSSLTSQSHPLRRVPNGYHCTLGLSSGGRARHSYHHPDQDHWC
T1 sequence (Q02410 whole entry): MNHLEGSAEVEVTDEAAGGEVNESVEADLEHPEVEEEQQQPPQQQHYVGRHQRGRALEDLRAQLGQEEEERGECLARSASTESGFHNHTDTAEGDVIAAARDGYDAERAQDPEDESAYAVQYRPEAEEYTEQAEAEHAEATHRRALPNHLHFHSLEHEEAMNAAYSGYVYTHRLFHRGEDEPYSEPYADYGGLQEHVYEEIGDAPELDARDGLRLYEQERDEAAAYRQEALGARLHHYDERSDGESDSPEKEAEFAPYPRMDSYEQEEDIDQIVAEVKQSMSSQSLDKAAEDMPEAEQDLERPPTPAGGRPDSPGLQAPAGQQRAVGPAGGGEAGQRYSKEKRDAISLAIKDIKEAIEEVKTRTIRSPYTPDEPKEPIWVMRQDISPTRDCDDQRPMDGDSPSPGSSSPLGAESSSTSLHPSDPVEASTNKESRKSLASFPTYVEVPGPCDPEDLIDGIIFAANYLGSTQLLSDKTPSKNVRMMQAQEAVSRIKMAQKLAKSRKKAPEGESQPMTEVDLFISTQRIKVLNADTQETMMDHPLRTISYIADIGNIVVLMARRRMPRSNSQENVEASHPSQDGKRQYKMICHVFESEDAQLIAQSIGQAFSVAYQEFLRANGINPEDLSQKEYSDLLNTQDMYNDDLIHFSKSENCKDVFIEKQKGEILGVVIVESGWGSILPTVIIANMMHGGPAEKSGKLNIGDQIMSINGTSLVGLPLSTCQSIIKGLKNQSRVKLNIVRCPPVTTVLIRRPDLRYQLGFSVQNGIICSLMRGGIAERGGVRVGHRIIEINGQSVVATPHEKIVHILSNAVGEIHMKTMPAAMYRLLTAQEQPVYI
DNA dC->dU-editing enzyme APOBEC-3G, sequence (Q9HC16 whole entry): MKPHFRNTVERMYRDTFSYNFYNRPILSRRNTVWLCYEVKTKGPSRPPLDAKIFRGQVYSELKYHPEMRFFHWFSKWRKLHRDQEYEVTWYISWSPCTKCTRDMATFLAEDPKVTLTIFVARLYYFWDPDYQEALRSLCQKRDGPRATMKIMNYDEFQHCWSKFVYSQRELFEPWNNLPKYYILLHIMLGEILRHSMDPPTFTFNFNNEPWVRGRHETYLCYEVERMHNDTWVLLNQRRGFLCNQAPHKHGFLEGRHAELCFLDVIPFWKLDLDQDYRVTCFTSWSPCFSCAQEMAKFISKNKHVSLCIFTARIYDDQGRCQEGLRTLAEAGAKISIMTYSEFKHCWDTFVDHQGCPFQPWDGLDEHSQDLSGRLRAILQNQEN
DNA dC->dU-editing enzyme APOBEC-3A, sequence (P31941 whole entry): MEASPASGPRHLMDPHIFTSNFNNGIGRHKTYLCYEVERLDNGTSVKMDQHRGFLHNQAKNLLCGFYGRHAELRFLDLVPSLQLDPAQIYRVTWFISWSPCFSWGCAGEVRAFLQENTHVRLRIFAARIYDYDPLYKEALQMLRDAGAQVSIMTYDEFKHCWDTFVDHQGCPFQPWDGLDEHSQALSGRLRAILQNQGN
DNA damage-inducible transcript 3 protein, sequence (P35639 whole entry): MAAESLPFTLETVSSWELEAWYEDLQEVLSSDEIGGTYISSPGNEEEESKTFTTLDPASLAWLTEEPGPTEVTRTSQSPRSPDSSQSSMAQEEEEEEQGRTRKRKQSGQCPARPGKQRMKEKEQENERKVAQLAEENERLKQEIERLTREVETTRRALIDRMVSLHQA

A word on the IC50: it is the midpoint of a concentration-inhibition curve. `COc1ccc2nc(O)c(CN(C3CCCCC3)C(c3nnnn3Cc3ccco3)C(C)C)cc2c1` (configuration not stated): the IC50 in [1] is 3.17 µM (active); in experiment [2], 25.9 µM (active).
`CCn1c(SCC(=O)Nc2cccnc2Cl)nnc1-c1ccccc1`: on Coagulation factor XII, the IC50 was > 50 µM (inactive).
With `CC(C)[N+](C)(C)CC#CC(O)(c1ccccc1)c1ccccc1`, the half-maximal inhibitory concentration (IC50) in experiment [3] is 9.63 µM (active); in [4], > 100 µM (inactive); in experiment [5], 2.55 µM (active); in experiment [6], 2.49 µM (active).
In the case of `O=C(c1ccc(Cl)cc1)c1c[nH]c(C(=O)NNc2cccc(Cl)n2)c1`, the “Absolute IC50 (CHOP)” value in experiment [7] stood at 10 µM.
In the case of `CCOC(=O)CNC(=O)Cc1ccc(OC)cc1`, on Coagulation factor XII, the IC50 is > 50 µM (inactive).
Usually EC50 stands for the concentration that produces a half-maximal response. Usually AC50 stands for the midpoint of the concentration-response curve, whichever way the signal moves. For the compound `COC(=O)c1c(N)sc(C(=O)NCCc2ccccc2)c1C`, the EC50 in [8] was 0.213 µM (active); in experiment [13], 3.07 µM (active); in experiment [15] it was 0.394 µM (active). Besides, the AC50 in experiment [9] is > 52 µM (inactive); in [10], 1.44 µM (active); in [11], 1.94 µM (active); in experiment [12], > 52 µM (inactive). Also, in experiment [14], the IC50 is > 39.8 µM (not active).
Take `CN(C)c1ccc(/C=C/c2nnnn2-c2ccccc2)cc1`: in experiment [16], the AC50 is 0.894 µM (active). For the same compound, the EC50 in experiment [17] is 0.463 µM (active); in [18], 0.323 µM (active); with H4, < 0.1 µM (active); in experiment [19], 0.365 µM (active); in [20], < 0.1 µM (inconclusive).
`CC(C)(C#CCCCCC#CC(C)(C)[N+](C)(C)C)[N+](C)(C)C`: the values for the half-maximal inhibitory concentration (IC50) in experiment [3] and in [4] were 7.97 µM (active) and > 100 µM (inactive), respectively.
As to `O=[N+]([O-])c1ccc(O)c(/C=N/Nc2nn[nH]n2)c1`, the values for the IC50 at Beta-galactosidase and at Nonstructural protein 1 were > 66.6 µM (inactive) and 1.66 µM (active), respectively.
